Consider 1 molecule from US11357748B2, “Methods for treating mendelian disorders of the epigenetic machinery” (THE JOHNS HOPKINS UNIVERSITY, priority 2014, dated 2022).

The structures appear in SMILES notation.

This assay deals with H3K4 trimethylation activity in Kmt2d+/βGeo MEFs. As to the kind of experiment: H3K4me3 indicator in murine embryonic fibroblasts (MEFs) from Kmt2d+/βGeo and Kmt2d+/+ mice. It is filed as cell-based, mouse. As to conditions: FIG. 18H. An excerpt: An H3K4 trimethylation reporter was also created (FIG. 5B). This reporter is based on the H3 tail on one end and the TBP associated factor III (TAFIII) […] on the other end; the TAFIII […] only identifies and binds to trimethylated K4 on H3. When the H3K4 site gets trimethylated, the TAFIII […] can bind to the modified H3 tail and bring the two parts of the separated GFP in close proximity. The activity of the epigenetic modification system can be quantified through fluorescence.
Epigenetic reporter alleles were synthesized (OriGene, Rockville, Md.) using published sequences for component elements (Baird et al. (1999) Proc. Natl. Acad. Sci. 96:11241-6; Souslova et al. (2007) BMC Biotechnol. 7:37). Single nucleotide mutations were created using the QuickChange Lightening kit (Agilent Technologies Inc, Santa Clara, Calif.). For H4ac indicator, K5R, K8R, K12R, K16R and K20R (MUT indicator) were introduced. For H3K4me3 indicator, K4Q and D890A/W891A and M882A (three separate constructs) were introduced. […] FACS data were analyzed using FlowJo (Tree Star Inc, Ashland, Oreg.). […]
Epigenetic reporter systems were created that monitor either H4 acetylation or H3K4 trimethylation machinery activity in an effort to determine whether there is an ongoing activity deficiency in cells from Kmt2d^+/βGeo mice (FIG. 18A). Both reporter alleles encode halves of green fluorescent protein separated by a flexible linker region (Baird et al. (1999) Proc. Natl. Acad. Sci. 96: 11241-6) with a histone tail and a histone reader at the N- and C-termini, respectively. When the histone tail corresponding to either H4 or H3 is modified by acetylation or methylation, respectively, GFP structure and function are reconstituted, as detected by a fluorescent readout (FIG. 18B). The acetyl reporter protein quantifies the activity of the acetylation machinery (acetylation of H4 specifically at sites K5, K8, K12, and K16) and comprises an H4 tail (residues 1-30) on one end and a TATA binding protein (TBP)-associated factor II (TAFII) bromodomain on the other end (FIG. 18A). […]

As for `CC(C)[C@H](C(=O)Nc1ccc(C(=O)NO)cc1)c1ccccc1` [AR-42, (S)—N-hydroxy-4-(3-methyl-2-phenylbutanamido)benzamide], the “H3K4 trimethylation activity in Kmt2d+/βGeo cells upon treatment” value (Kmt2d+/βGeo MEFs, 22A, 23) is “enhanced”. Also, the “H3K4me3 indicator activity in MEFs” value (both genotypes (Kmt2d+/+ and Kmt2d+/βGeo)) is on record as “dose-dependent response”.
